Measurements from patent publication US6340687B1, “Substituted tetrahydro-pyrimidine-2(1H)-thione HDL-C elevators useful as antiatherosclerotic agents” (American Home Products Corporation, priority 1997, dated 2002).

Columns and labels:
[1] = system: HDL cholesterol; assay: in vivo standard pharmacological test procedure measuring elevation of HDL cholesterol levels in cholesterol/cholic acid-fed rats; set-up: species or system Male Sprague-Dawley rats; details: serum, eight days of treatment; for change in vivo at 50 mg/kg: dose 50 mg/kg mixed in diet; for change in vivo at 100 mg/kg / HDL Cholesterol Level Increase (%): dose 100 mg/kg mixed in diet
Method: Representative compounds of this invention were evaluated in an in vivo standard pharmacological test procedure which measured the ability of the compounds of this invention to elevate HDL cholesterol levels. The following briefly describes the procedure used and results obtained. Male Sprague-Dawley rats weighing 200-225 g were housed two per cage and fed Purina Rodent Chow Special Mix 5001-S supplemented with 0.25% cholic acid and 1.0% cholesterol and water ad libitum for 8 days. Each test substance was administered to a group of six rats fed the same diet with the test diet mixed in as 0.005-0.1% of the total diet. Body weight and food consumption were recorded prior to diet administration and at termination. Typical doses of the test substances were 5-100 mg/kg/day.
At termination, blood was collected from anesthetized rats and the serum was separated by centrifugation. Total serum cholesterol was assayed using the Sigma Diagnostics enzymatic kit for the determination of cholesterol, Procedure No. 352, modified for use with ninety-six well microtiter plates. After reconstitutiton with water the reagent contains 300 U/l cholesterol oxidase, 100 U/l cholesterol esterase, 1000 U/l horse radish peroxidase, 0.3 mmol/l 4-aminoantipyrine and 30.0 mmol/l p-hydroxybenzene sulfonate in a pH 6.5 buffer. In the reaction cholesterol was oxidized to produce hydrogen peroxide which was used to form a quinoneimine dye. The concentration of dye formed was measured spectrophotometrically by absorbance at 490 nm after incubation at 25° C. for 30 minutes. The concentration of cholesterol was determined for each serum sample relative to a commercial standard from Sigma.
HDL cholesterol concentrations in serum were determined by separation of lipoprotein classes by fast protein liquid chromatography (FPLC) by a modification of the method of Kieft et al., (J. Lipid Res., 32, 859-866 (1991). Using this methodology, […] of serum was injected onto Superose 12 and Superose 6 (Pharmacia), in series, with a column buffer of 0.05 M Tris (2-amino-2-hydroxymethyl-1,3-propanediol) and 0.15 M sodium chloride at a flow rate of 0.5 mL/min. The eluted sample was mixed on line with Boehringer-Mannheim cholesterol reagent pumped at 0.2 mL/min. The combined eluents were mixed and incubated on line through a knitted coil (Applied Biosciences) maintained at a temperature of 45° C. The eluent was monitored by measuring absorbance at 490 nm and gives a continuous absorbance signal proportional to the cholesterol concentration. The relative concentration for each lipoprotein class was calculated as the percent of total absorbance. HDL cholesterol concentration in serum was calculated as the percent of total cholesterol as determined by FPLC multiplied by the total serum cholesterol concentration.
In Examples 5-7, 9, 10 and 12-20 the test compounds were administered at a dose of 100 mg/kg. In Examples 1, 2, 3 and 11, the test compounds were administered at a dose of 50 mg/kg. In Example 4, the test compound was administered at a dose of 46 mg/kg and in Example 8 at a dose of 90 mg/kg. The duration of treatment for all examples was eight days.

[2] = Rattus norvegicus, feed or water, 192 h, read-out: HDL Cholesterol Level Increase (%)

| melting point | SMILES | change in vivo at 100 mg/kg [1, 2] | other results |
| --- | --- | --- | --- |
| 266 to 268 °C | Cc1cc(Cl)ccc1N1CCCNC1=S [Example 1, 1-(4-Chloro-2-methyl-phenyl)-3,4,5,6-tetrahydro-pyrimidine-2(1H)-thione] | – | change in vivo at 50 mg/kg [1, 2]: 86% |
| 211 to 212 °C | S=C1NCCCN1c1ccccc1 [Example 2, 1-Phenyl-3,4,5,6-tetrahydro-pyrimidine-2(1H)-thione] | – | change in vivo at 50 mg/kg [1, 2]: 20% |
| 116 to 118 °C | CCN1CCCN(c2ccc(Cl)cc2C)C1=S [Example 3, 1-(4-Chloro-2-methyl-phenyl)-3-ethyl-3,4,5,6-tetrahydro-pyrimidine-2(1H)-thione] | – | change in vivo at 50 mg/kg [1, 2]: 152% |
| 249 to 251 °C | Cc1cccc(C)c1N1CCCNC1=S [Example 4, 1-(2,6-Dimethyl-phenyl)-3,4,5,6-tetrahydro-pyrimidine-2(1H)-thione] | – | change in vivo at 46 mg/kg ([1]; Rattus norvegicus, feed or water, 192 h, dose 46 mg/kg mixed in diet, read-out: HDL Cholesterol Level Increase (%)): 34% |
| 111 to 112 °C | CCN1CCCN(c2cc(Cl)ccc2C)C1=S [Example 5, 1-(5-Chloro-2-methyl-phenyl)-3-ethyl-3,4,5,6-tetrahydro-pyrimidine-2(1H)-thione] | 183% | – |
| 176 to 178 °C | Cc1ccc(Cl)cc1N1CCCN(C(C)C)C1=S [Example 6, 1-(5-Chloro-2-methyl-phenyl)-3-isopropyl-3,4,5,6-tetrahydro-pyrimidine-2(1H)-thione] | 137% | – |
| 147 to 149 °C | Cc1cc(Cl)ccc1N1CCCN(C(C)C)C1=S [Example 7, 1-(4-Chloro-2-methyl-phenyl)-3-isopropyl-3,4,5,6-tetrahydro-pyrimidine-2(1H)-thione] | 92% | – |
| 71 to 72 °C | C=CCN1CCCN(c2cc(Cl)ccc2C)C1=S [Example 8, 3-Allyl-1-(5-chloro-2-methyl-phenyl)-3,4,5,6-tetrahydro-pyrimidine-2(1H)-thione] | – | change in vivo at 90 mg/kg ([1]; Rattus norvegicus, feed or water, 192 h, dose 90 mg/kg mixed in diet, read-out: HDL Cholesterol Level Increase (%)): 21% |
| 143 to 145 °C | Cc1ccc(Cl)cc1N1CCCN(C)C1=S [Example 9, 1-(5-Chloro-2-methyl-phenyl)-3-methyl-3,4,5,6-tetrahydro-pyrimidine-2(1H)-thione] | 143% | – |
| – | C=CCN1CCCN(c2ccc(Cl)cc2C)C1=S [Example 10, 3-Allyl-1-(4-chloro-2-methyl-phenly)-3,4,5,6-tetrahydro-pyrimidine-2(1H)-thione] | – | HDL Cholesterol Level Increase (%) [1]: 57% |
| 143 to 145 °C | Cc1cc(Cl)ccc1N1CCCN(C)C1=S [Example 11, 1-(4-Chloro-2-methyl-phenyl)-3-methyl-3,4,5,6-tetrahydro-pyrimidine-2(1H)thione] | – | change in vivo at 50 mg/kg [1, 2]: 86% |
| 82 to 84 °C | C=CCN1CCCN(c2c(C)cccc2Cl)C1=S [Example 12, 3-Allyl-1-(6-chloro-2-methyl-phenyl)-3,4,5,6-tetrahydro-pyrimidine-2(1H)-thione] | 19% | – |
| 164 to 165 °C | Cc1cccc(Cl)c1N1CCCN(C)C1=S [Example 13, 1-(6-Chloro-2-methyl-phenyl)-3-methyl-3,4,5,6-tetrahydro-pyrimidine-2(1H)-thione] | 81% | – |
| – | Cc1ccc(Cl)cc1N1CCCN(CC(C)C)C1=S [Example 14, 1-(5-Chloro-2-methyl-phenyl)-3-isobutyl-3,4,5,6-tetrahydro-pyrimidine-2-(1H)-thione] | – | HDL Cholesterol Level Increase (%) [1]: 66% |
| 135 to 136 °C | Cc1cccc(Cl)c1N1CCCN(C(C)C)C1=S [Example 15, 1-(6-Chloro-2-methyl-phenyl)-3-isopropyl-3,4,5,6-tetrahydro-pyrimidine-2(1H)-thione] | 86% | – |
| 88 to 90 °C | CCN1CCCN(c2c(C)cccc2Cl)C1=S [Example 16, 1-(6-Chloro-2-methyl-phenyl)-3-ethyl-3,4,5,6-tetrahydro-pyrimidine-2(1H)-thione] | 85% | – |
| 88 to 90 °C | Cc1cc(Cl)ccc1N1CCCN(CC(C)C)C1=S [Example 17, 1-(4-Chloro-2-methyl-phenyl)-3-isobutyl-3,4,5,6-tetrahydro-pyrimidine-2(1H)-thione] | 12% | – |
| 89 to 91 °C | Cc1cccc(Cl)c1N1CCCN(C2CCC2)C1=S [Example 18, 1-(6-Chloro-2-methyl-phenyl)-3-cyclobutyl-3,4,5,6-tetrahydro-pyrimidine-2(1H)-thione] | 42% | – |
| 152 to 154 °C | Cc1ccc(Cl)cc1N1CCCN(C2CCC2)C1=S [Example 19, 1-(5-Chloro-2-methyl-phenyl)-3-cyclobutyl-3,4,5,6-tetrahydro-pyrimidine-2(1H)-thione] | 37% | – |
| 119 to 121 °C | Cc1cccc(Cl)c1N1CCCN(CC(C)C)C1=S [Example 20, 1-(6-Chloro-2-methyl-phenyl)-3-isobutyl-3,4,5,6-tetrahydro-pyrimidine-2(1H)-thione] | 24% | – |
